Among the data in PubChem BioAssay (NCI) are TGI and GI50 values, retold here.

Some test systems named below: SK-MEL-2 melanoma; K-562 leukemia; SK-MEL-28 melanoma; UO-31 renal; OVCAR-4 ovarian; CAKI-1 renal; UACC-257 melanoma; UACC-62 melanoma; SN12C renal; SNB-75 CNS.
What all share (assay): growth of human tumour cells (NCI), 48 h

Structures are written as SMILES.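 Growth conditions: 96-well plates. Treatment: test compound, 48 hours, 5 concentrations. Analysis: linear interpolation between bracketing concentrations; unreached endpoints set to highest concentration. Here, GI50 denotes the concentration required for 50% inhibition of growth. TGI denotes the concentration required for complete inhibition of growth.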

In the case of `COc1ccc(NC(=O)CC/C(CC(=O)C(C)(C)C)=N\NC(=O)C(N)=O)cc1`, the TGI with SK-MEL-2 melanoma, in the test with K-562 leukemia, in the test with SK-MEL-28 melanoma, with UO-31 renal, in the test on OVCAR-4 ovarian and in the test on CAKI-1 renal was > 100 µM each time. The TGI with UACC-257 melanoma, with UACC-62 melanoma and with SN12C renal was > 100 µM throughout.

On to `O=C(/C=C/C=C/c1c(C2CC2)nc2ccccc2c1-c1ccc(F)cc1)c1cccs1`, for which the GI50 with SK-MEL-2 melanoma was 1.74 µM; with SNB-75 CNS it was > 100 µM; with SK-MEL-28 melanoma, 3.57 µM; with UO-31 renal it was 1.16 µM; in the test on OVCAR-4 ovarian it was 1.64 µM; with UACC-257 melanoma it was 1.97 µM. Besides, the GI50 with UACC-62 melanoma was 1.46 µM; with SN12C renal, 2.25 µM. Moreover, the TGI with SK-MEL-2 melanoma was 6.14 µM; in the test with SNB-75 CNS, > 100 µM; with SK-MEL-28 melanoma, > 100 µM; in the test on UO-31 renal, 3.05 µM; with OVCAR-4 ovarian, 14.7 µM; in the test with UACC-257 melanoma it was 6.22 µM. Further, the TGI in the test on UACC-62 melanoma was 6.64 µM; with SN12C renal it was > 100 µM.

As for `Cc1cc2cn3c4ccc(O)cc4[nH]c(=O)c3c2cc1C`, the GI50 in the test with SK-MEL-2 melanoma is 0.0411 µM; with SK-MEL-28 melanoma it was 0.0346 µM; in the test on UO-31 renal, 0.0228 µM; in the test on OVCAR-4 ovarian it was 0.0675 µM; in the test with CAKI-1 renal, 0.0323 µM; in the test with UACC-257 melanoma, 0.0416 µM. In addition, the GI50 in the test with UACC-62 melanoma was 0.0411 µM. Besides, the TGI with SK-MEL-2 melanoma came out at 1.97 µM; in the test on K-562 leukemia, 0.329 µM; in the test on SK-MEL-28 melanoma it was 1.74 µM; in the test with UO-31 renal, 1.84 µM; with OVCAR-4 ovarian, 1.81 µM; with CAKI-1 renal it was 1.5 µM. Besides, the TGI in the test on UACC-257 melanoma is 1.31 µM; in the test on UACC-62 melanoma, 1.78 µM.

`O=c1c(O)cccc2cc(O)c(O)c(O)c12`: the GI50 in the test on K-562 leukemia is 3.95 µM; in the test with SK-MEL-28 melanoma, 32.3 µM; in the test on UO-31 renal, 2.54 µM; with CAKI-1 renal, 14.3 µM; with UACC-257 melanoma, 5.84 µM; with UACC-62 melanoma it was 6.4 µM. Besides, the GI50 in the test on SN12C renal was 57.4 µM. Moreover, the TGI with K-562 leukemia, in the test on SK-MEL-28 melanoma, with UO-31 renal, with CAKI-1 renal, in the test with UACC-257 melanoma and with UACC-62 melanoma was > 100 µM throughout. Besides, the TGI in the test with SN12C renal is > 100 µM.

In the case of `Cc1nccc2c3ccc(OCc4cn(-c5ccc(Cl)cc5)nn4)cc3n(CCCc3ccccc3)c12`, the GI50 in the test with SK-MEL-2 melanoma was > 33.3 µM; in the test on SNB-75 CNS, 0.565 µM; in the test with K-562 leukemia it was 2.96 µM; in the test with SK-MEL-28 melanoma, 1.3 µM; with UO-31 renal, 0.545 µM; in the test on OVCAR-4 ovarian, 4.34 µM. Further, the GI50 with UACC-257 melanoma is 4.58 µM; in the test with UACC-62 melanoma, 1.89 µM; with SN12C renal, 8.81 µM. In addition, the TGI in the test on SK-MEL-2 melanoma was > 33.3 µM; in the test on SNB-75 CNS it was 1.57 µM; in the test on K-562 leukemia it was > 33.3 µM; with SK-MEL-28 melanoma it was 5.71 µM; with UO-31 renal it was 1.37 µM; in the test with OVCAR-4 ovarian it was 10.4 µM. Besides, the TGI in the test on UACC-257 melanoma came to 13.4 µM; in the test with UACC-62 melanoma, 7.43 µM; in the test with SN12C renal it was 31.2 µM.

On to `CN1CCN(c2cc(C(=O)Nc3cc4cc(-c5cnn(C)c5)ccc4cn3)ccn2)CC1`, for which the GI50 was 0.113 µM in the test on SK-MEL-2 melanoma; 0.137 µM in the test with SNB-75 CNS; 0.0727 µM with K-562 leukemia; 0.217 µM with SK-MEL-28 melanoma; 0.122 µM with UO-31 renal; 0.151 µM with OVCAR-4 ovarian. Moreover, the GI50 in the test with UACC-257 melanoma was 0.146 µM; in the test with UACC-62 melanoma, 0.192 µM; in the test with SN12C renal it was 0.123 µM. Moreover, the TGI was 0.364 µM in the test with SK-MEL-2 melanoma; 0.833 µM in the test on SNB-75 CNS; > 100 µM in the test with K-562 leukemia; 2.89 µM in the test with SK-MEL-28 melanoma; 0.532 µM with UO-31 renal; 1.46 µM in the test on OVCAR-4 ovarian. The figures for the TGI with UACC-257 melanoma, with UACC-62 melanoma and in the test on SN12C renal were 10.4 µM, 0.646 µM and 12.7 µM, respectively.

`CC(=O)O[C@H]1CCC2[C@@H]3CCC4=C(O)C(=O)C(C#N)C[C@]4(C)C3CC[C@@]21C` (stereo partly specified): the TGI with SK-MEL-2 melanoma was > 100 µM; in the test with SNB-75 CNS it was 72.1 µM; in the test on K-562 leukemia, > 100 µM; with SK-MEL-28 melanoma, > 100 µM; with UO-31 renal, > 100 µM; in the test with OVCAR-4 ovarian, 90.9 µM. Moreover, the TGI with UACC-257 melanoma, in the test with UACC-62 melanoma and in the test on SN12C renal was > 100 µM throughout.

As for `Cc1ccc(C2NC(=O)c3ccccc3N2)s1` (stereo unspecified), the TGI in the test with SK-MEL-2 melanoma is 42 µM; in the test with K-562 leukemia, > 100 µM; in the test with SK-MEL-28 melanoma, > 100 µM; in the test with UO-31 renal, > 100 µM; in the test with UACC-62 melanoma, > 100 µM; in the test on SN12C renal, 52.8 µM.

On to `C=C1c2[nH]c3ccccc3c2C2C(CC)C1CCN2C` (stereo unspecified), for which the TGI in the test with SK-MEL-2 melanoma was > 100 µM; with SK-MEL-28 melanoma, 77.2 µM; with UO-31 renal, > 100 µM; in the test on OVCAR-4 ovarian, > 100 µM; with CAKI-1 renal, > 100 µM; in the test on UACC-257 melanoma, 95.6 µM. Further, the TGI with UACC-62 melanoma and in the test on SN12C renal was > 100 µM throughout.

Consider `CCN(CC)c1ccc2c(c1)Oc1nc(N)c(C#N)c(N)c1C2Sc1ccc(OC)cc1` (stereo unspecified), for which the GI50 in the test on SK-MEL-2 melanoma is 1.56 µM; in the test with SNB-75 CNS, 1.51 µM; in the test on K-562 leukemia it was 2.61 µM; with SK-MEL-28 melanoma it was 1.85 µM; with UO-31 renal, 1.52 µM; with OVCAR-4 ovarian, 1.57 µM. The GI50 with UACC-257 melanoma is 1.98 µM; in the test on UACC-62 melanoma it was 1.72 µM. In addition, the TGI amounted to 3.14 µM with SK-MEL-2 melanoma; 2.89 µM in the test on SNB-75 CNS; 8.07 µM with K-562 leukemia; 3.37 µM in the test on SK-MEL-28 melanoma; 2.85 µM in the test with UO-31 renal; 3.02 µM in the test on OVCAR-4 ovarian. Besides, the TGI came to 3.48 µM in the test with UACC-257 melanoma and 3.34 µM in the test with UACC-62 melanoma.

Consider `CCN1C2=NCCN2S(=O)(=O)c2ccccc21`, for which the TGI in the test on SK-MEL-2 melanoma, in the test with K-562 leukemia, in the test with SK-MEL-28 melanoma, with UO-31 renal, in the test on OVCAR-4 ovarian and in the test with CAKI-1 renal was > 100 µM throughout. The TGI with UACC-257 melanoma, with UACC-62 melanoma and with SN12C renal was > 100 µM each time.

`O=c1cc(-c2ccccc2)oc2cc(O)cc(O)c12`: the TGI in the test on SK-MEL-2 melanoma was 39.6 µM; in the test on SNB-75 CNS, 31.2 µM; in the test on K-562 leukemia, 63.1 µM; in the test with SK-MEL-28 melanoma it was 43.5 µM; with UO-31 renal, 43.5 µM; with OVCAR-4 ovarian, > 100 µM. Also, the TGI in the test on UACC-257 melanoma is 62.3 µM; with UACC-62 melanoma it was 76.5 µM; in the test on SN12C renal it was 54.6 µM.

With `CC1=C(C(=O)Nc2cc(=O)n(C)c(=O)n2C)C(c2ccc([N+](=O)[O-])cc2)C(C(=O)Nc2cc(=O)n(C)c(=O)n2C)=C(C)N1`, the TGI in the test with SK-MEL-2 melanoma, in the test on SNB-75 CNS, in the test on K-562 leukemia, in the test with SK-MEL-28 melanoma, in the test with UO-31 renal and in the test on OVCAR-4 ovarian was > 100 µM each time. Also, the TGI in the test with UACC-257 melanoma, in the test with UACC-62 melanoma and in the test with SN12C renal was > 100 µM each time.

As for `CC(=O)OC1CC2Oc3ccc(C)cc3C(C)(O2)C1=O` (stereo unspecified), the TGI in the test on SNB-75 CNS, with K-562 leukemia, in the test on SK-MEL-28 melanoma, in the test with UO-31 renal, with UACC-257 melanoma and with UACC-62 melanoma was > 100 µM in each case. Moreover, the TGI in the test with SN12C renal was > 100 µM.

Take `COc1ccc(C(=O)C(c2ccc(OC)cc2)C2OC(=O)C(Cl)=C2Cl)cc1` (stereo unspecified): the TGI in the test with SK-MEL-2 melanoma, in the test with K-562 leukemia, with SK-MEL-28 melanoma, in the test with UO-31 renal, with OVCAR-4 ovarian and in the test with CAKI-1 renal was > 100 µM in each case. For the same compound, the TGI in the test on UACC-257 melanoma, in the test with UACC-62 melanoma and with SN12C renal was > 100 µM in each case.

Take `COc1ccc(Cc2cc3c(cc2OCC(=O)O)OCO3)cc1`: the TGI with SK-MEL-2 melanoma, in the test with K-562 leukemia, in the test with SK-MEL-28 melanoma, in the test on UO-31 renal, in the test on OVCAR-4 ovarian and in the test on CAKI-1 renal was > 100 µM throughout. Moreover, the TGI in the test on UACC-257 melanoma, in the test with UACC-62 melanoma and with SN12C renal was > 100 µM each time.

Take `Cc1[nH]c2ccccc2c1-c1cc(-c2cc(-c3c(C)[nH]c4ccccc34)nc(N)n2)nc(N)n1`: the TGI with SK-MEL-2 melanoma, with K-562 leukemia, in the test with SK-MEL-28 melanoma, in the test with UO-31 renal, with OVCAR-4 ovarian and in the test on CAKI-1 renal was > 100 µM each time. For the same compound, the TGI in the test on UACC-257 melanoma, in the test on UACC-62 melanoma and in the test on SN12C renal was > 100 µM in each case.

Turning to `COC(=O)CCC(=O)Nc1cc(Cl)ccc1Cl`, the TGI in the test on SK-MEL-2 melanoma, in the test with K-562 leukemia, in the test with SK-MEL-28 melanoma, with UO-31 renal, in the test with OVCAR-4 ovarian and with CAKI-1 renal was > 100 µM throughout. In addition, the TGI with UACC-257 melanoma, in the test on UACC-62 melanoma and with SN12C renal was > 100 µM each time.

For the compound `NC(=O)c1coc(C2OC(CO)C(O)C2O)n1` (stereo unspecified), the TGI in the test on SK-MEL-2 melanoma, with K-562 leukemia, with SK-MEL-28 melanoma, in the test with UO-31 renal, in the test with OVCAR-4 ovarian and in the test with UACC-62 melanoma was > 100 µM throughout. Also, the TGI with SN12C renal is > 100 µM.
